The numbers were not newly measured in patent US20140342380A1, “VERIFYING THE SOURCE OF BIOLOGICAL SAMPLES; METHOD, COMPOSITION AND KIT THEREFOR” (priority 2011, published 2014), which cites them from elsewhere.

For series [1] the following is noted: cited from earlier work.
For series [2] the following is noted: cited from earlier work. The source holds these as a separate data set.

Read-outs that look alike come from different tables or passages of the source.

Regarding inulin, the “renal handling / detection in urine after consumption” value in series [1] (general statement) is “readily passively filtered by the kidney, e.g., detected in the urine after consumption”.

On to `O=C(OC[C@H]1O[C@@H](OC(=O)c2cc(O)c(O)c(OC(=O)c3cc(O)c(O)c(O)c3)c2)[C@H](OC(=O)c2cc(O)c(O)c(OC(=O)c3cc(O)c(O)c(O)c3)c2)[C@@H](OC(=O)c2cc(O)c(O)c(OC(=O)c3cc(O)c(O)c(O)c3)c2)[C@@H]1OC(=O)c1cc(O)c(O)c(OC(=O)c2cc(O)c(O)c(O)c2)c1)c1cc(O)c(O)c(OC(=O)c2cc(O)c(O)c(O)c2)c1` [Tannic acid], for which the “metabolite(s) found after ingestion” value in series [2] (Table 1 note, cited study in rat) is “Tannic acid: metabolized to 4-0-Methylgallic acid (4-OMGA), pyrogallol (PY), and resorcinol”.

On to `C=CCc1ccc(O)c(OC)c1` [eugenol], for which the “metabolite(s) found after ingestion” value in series [2] (rat, in vivo) is “eugenol clove leaf oil metabolized to Glucuronide and sulfate conjugates were identified in urine”.

Take `CCCCCCCCCCCCOC(=O)CCSCCC(=O)OCCCCCCCCCCCC` [Dilauryl thiodipropionate (DLTDP), Dilauryl thiodipropionate]: in series [1] (Table 1 note, species not stated), the “metabolite(s) / form excreted in urine after ingestion” value is “Dilauryl thiodipropionate (DLTDP), Ingested DLTDP was excreted in the urine as thiodipropionic”.
